EC50 and IC50 data for 1 substance are collected here from patent US6465641B1, “One pot synthesis of 5′-hydroxy phosphorylated nucleoside derivatives, and compounds formed thereby” (Parker Hughes Institute, priority 1999, dated 2002).

Experiment [1] concerns sperm. Particulars: read-out: EC50 value in sperm motility assays.
The test system of experiment [2] is HIV. Particulars: read-out: IC50 value in HIV replication assays.

As usually defined, the EC50 is the concentration giving half of the maximal effect. Usually IC50 stands for the concentration that gives 50% inhibition. Take “5-bromo-6-methoxy-5,6-dihydro-AZT-5′-(p-bromophenyl methoxyalaninyl phosphate)”: the EC50 in experiment [1] was 2800 nM. The IC50 in experiment [2] is 5 nM.
